The record followed here is patent US20030049249A1 (priority 2001, published 2003).

In assay [1] the test system is N2a/Bos2 cells exposed to 0.1% scrapie-infected brain homogenate (RML prions). Format: cell-based, mouse.
In assay [2] the test system is chronically scrapie-infected N2a/Bos2 cells. Format: cell-based, mouse.

Take “phosphatidylinositol-specific phospholipase C [PIPLC]”: the “effect on appearance of PrPSc” value in assay [1] (PIPLC 0.25, 0.5, 1 and 2 units/ml before and/or during exposure of a susceptible cell to prions) was “prevents appearance of PrPSc”. Besides, the “concentration that sufficed to prevent appearance of PrPSc” value in assay [1] (added 2 h before and during 3-day exposure to 0.1% scrapie-infected brain homogenate, cell blot after 14 days in absence of PIPLC) worked out at 0.25 units/ml. For the same substance, the “effect on PrPSc in chronically infected cells” value in assay [2] is listed as “causes rapid loss of PrPSc”.
